Laboratory results published in patent US12391662B2, “Lipid compounds and lipid nanoparticle compositions” (RINUAGENE BIOTECHNOLOGY CO., LTD., priority 2022, dated 2025).

Tests used:
[1] = LNP particle size and PDI (Malvern ZetaSizer); format: physicochemical; details: LNP of Compound:cholesterol:DSPC:DMG-PEG2000=50:38.5:10:1.5 encapsulating mRNA
Procedure: The mRNA stock solution was dispersed in 20 mM acetic acid solution (pH 5.0) to give a final concentration of 200 μg/mL (aqueous phase). […] The mRNA was mixed with the lipid mixture by T-mixing and controlling the flow rate of aqueous phase and oil phase (3:1) with a total flow rate of 12-50 ml/min, to obtain LNP-encapsulated mRNA. The encapsulated LNP was diluted with buffer (pH 5.0-5.5) and then concentrated by ultrafiltration with replacement of diluent, and finally LNP was concentrated to 200 μg/mL˜600 μg/mL of mRNA, while the pH of LNP was adjusted to about 7-8. […]

[2] = LNP mRNA encapsulation efficiency (Quant-iT RiboGreen RNA Assay Kit); format: physicochemical; details: LNP of Compound:cholesterol:DSPC:DMG-PEG2000=50:38.5:10:1.5 encapsulating mRNA
Procedure: The mRNA stock solution was dispersed in 20 mM acetic acid solution (pH 5.0) to give a final concentration of 200 μg/mL (aqueous phase). […] The mRNA was mixed with the lipid mixture by T-mixing and controlling the flow rate of aqueous phase and oil phase (3:1) with a total flow rate of 12-50 ml/min, to obtain LNP-encapsulated mRNA. The encapsulated LNP was diluted with buffer (pH 5.0-5.5) and then concentrated by ultrafiltration with replacement of diluent, and finally LNP was concentrated to 200 μg/mL˜600 μg/mL of mRNA, while the pH of LNP was adjusted to about 7-8. Finally, Quant-iT™ RiboGreen™ RNA Assay Kit (Invirtogen by Thermo Fisher Scientific, cat #R11490), and 10% Triton X-100 solution or 10% OTG solution as an emulsion breaker were used to detect the total and free content of mRNA in the LNP, and the encapsulation efficiency of LNP was calculated.

balb/c mice = experiment: Extrahepatic delivery of Luciferase mRNA LNPs after intravenous injection, organ fluorescence (liver, spleen, stomach, intestine tract); format: in vivo; details: 20 μg LNP intravenous, 24 hours, FIGS. 2A-2D, compared with MC3 and Compound 20A groups
Procedure: Five balb/c mice (Zhejiang Vital River Laboratory Animal Technology Co., Ltd, female, 6-8 weeks old, 18-20 g) were taken as a group, labeled with a black marker pen on the tail with numbers 1 # to 5 #; five mice in each group were sequentially injected intravenously with 20 μg of the lipid nanoparticle composition. The lipid nanoparticle compositions of the present invention were prepared according to Test Example 1, in which Luciferase mRNA was encapsulated. A phosphate buffered saline (PBS) group was set up in parallel as a blank control, and an MC3 group was set up as a reference (obtained by preparation according to the method and ratio of Test Example 1).
Fluorescence assay was performed for each group of mice at 24 hours after intravenous administration of the samples ([…] YEASEN,LOT:D5330150, IP, 150 mg/kg was administered 10 minutes in advance for each group), the mice were anesthetized, and then put into a small animal living optical imaging system-IVIS® Lumina LT Series III according to the orders from tail mark 1 # to 5 #. The whole-body fluorescence was detected to evaluate the delivery and the expression of the prepared Luciferase mRNA.
At the end of the test, the mice were sacrificed by cervical dislocation, and the liver, spleen, stomach, and intestine tract were harvested, and the organs were discharged according to the corresponding positions from 1 # to 5 # for fluorescence detection of the organs.

rats = experiment: Toxicity assay: serum ALT/AST and deaths after single intravenous dose of Luciferase mRNA LNPs; format: in vivo; details: LNP intravenous single dose 3 mg/kg, serum 24 hours after administration, FIGS. 3A-3B
Procedure: Animals were grouped according to body weight (five animals per group) one day before administration (Zhejiang Vital River Laboratory Animal Technology Co. Ltd, male, body weight: 170-220 g). […] Luciferase mRNA was encapsulated in said lipid nanoparticle compositions.
The administration volume is 10 mL/kg, and the administration dosage is 3 mg/kg.

Structure (SMILES)	PDI [1]	Particle Size [1] [nm]	Encapsulation Efficiency [2] [%]	extrahepatic delivery effect (balb/c mice)	aspartate aminotransferase and alanine aminotransferase values compared with MC3 and SM102 groups (rats)
CCCCCCCCCCCOC(=O)CCCCCC1(CCCCCCCC(=O)OC(CCCCCCCC)CCCCCCCC)OC[C@H](CCN(C)C)O1 (stereo partly shown) [Compound 2A]	0.02967	86.26	96.44	significant extrahepatic delivery effects	lower than those of the groups of the ionizable lipids MC3 and SM102
CCCCCCCCCCC(=O)OCCCCCCC1(CCCCCCCC(=O)OC(CCCCCCCC)CCCCCCCC)OC[C@H](CCN(C)C)O1 (stereo partly shown) [Compound 5A]	0.1311	73.41	96.0	significant extrahepatic delivery effects	lower than those of the groups of the ionizable lipids MC3 and SM102
